According to PubChem BioAssay AID720713 (Broad Institute, 2013):
Calls of active or inactive are those of the source. No rule for the calls is given here.

System: not listed separately
Assay: A549 cell cytotoxicity, dose response, plate reader, dry powder, set 2 (AID 720713)
Conditions: A549 cytotoxicity, plate reader; at 12 µM (top of the series)

Row | SMILES | activity change, negative = cytotoxicity
1 | CN(C(=O)COc1ccccc1C(=O)NCCOc1ccccc1)c1ccccc1 | 2.59% (inactive)

Same assay, conditions: A549 cytotoxicity, plate reader; at 26 µM (top of the series)

Row | SMILES | activity change, negative = cytotoxicity
2 | Nc1nonc1C(=O)NCCNCc1cc(Br)ccc1OCc1ccc(F)cc1 | 4.85% (inactive)
3 | CN(CC(=O)Nc1cccc(S(=O)(=O)N2CCOCC2)c1)CC(=O)Nc1ccc(Cl)c(C(F)(F)F)c1 | 8.78% (inactive)
4 | Fc1ccc(-n2nnnc2-c2cnc(-c3cccs3)nc2C(F)(F)F)cc1 | 2.19% (inactive)
5 | CCOC(=O)c1ccc(NC(=O)Cn2ncc(Cl)c(Cl)c2=O)cc1 | -6.56% (inactive)
6 | Cc1cc2c(cc(C(=O)N3CCC(C(=O)NC4CCCC4)CC3)n2Cc2c(F)cccc2Cl)o1 | -19.5% (inactive)
7 | COc1ccc2c(c1)c(CC(=O)Nc1cc(C)ccc1C)c(C)n2C(=O)c1ccc(Cl)cc1 | -1.36% (inactive)
8 | Cc1cc(N2CCCC2=O)cc(C)c1S(=O)(=O)NCCOc1ccc(C(C)(C)C)cc1 | 11% (inactive)
9 | O=C(c1nnsc1S(=O)c1ccc(Cl)cc1)N1CCOCC1 (configuration not stated) | -41.1% (inactive)
10 | CC(=O)N1CCN(C(=O)CCc2cc(C(C)(C)C)c(O)c(C(C)(C)C)c2)CC1 | -4.62% (inactive)
11 | CN(C)S(=O)(=O)c1cccc(NC(=O)c2cccc(S(=O)(=O)N3CCc4ccccc43)c2)c1 | -0.758% (inactive)
12 | CC(C)[C@H](NC(=O)OC(C)(C)C)c1nnc(S(=O)(=O)Cc2c(F)cccc2Cl)o1 | 22.5% (inactive)
13 | COc1ccc(Nc2nc(N3CCCCC3)c3ccccc3n2)cc1 | 5.38% (inactive)
14 | CCOC(=O)C1CCN(C(=O)c2ccc(OCC(=O)Nc3cccc(C(F)(F)F)c3)c(OC)c2)CC1 | -17.5% (inactive)
15 | CCCc1nnc(NC(=O)c2nc(S(=O)(=O)Cc3ccc(C)cc3)ncc2Cl)s1 | 8.63% (inactive)
16 | O=c1c2ccccc2nc2n1C(CSCc1ccc(Cl)cc1Cl)CS2 (configuration not stated) | 6.09% (inactive)
17 | COc1ccc(NS(=O)(=O)c2ccc(C(=O)N3CCCCCC3)cc2)cc1 | 22% (inactive)
18 | CCOC(=O)C1(Cc2ccc(Cl)cc2)CCN(C(C)Cc2ccc(O)c(OC)c2)CC1 (configuration not stated) | 1.75% (inactive)
19 | CC(=O)Nc1cccc(NC(=O)CSc2ncc(-c3ccc(Cl)cc3)n2Cc2ccco2)c1 | 11.6% (inactive)
20 | CC(C)(C)NC(=O)CSc1nc2ccc(NC(=O)CSc3nnnn3Cc3ccccc3)cc2s1 | 16.7% (inactive)
21 | COc1cc2ncnc(N[C@H](C)c3ccccc3)c2cc1OC | 10.2% (inactive)
22 | Cc1ccc2cc(CN(CC3CCCO3)C(=O)NC3CCCCC3)c(=O)[nH]c2c1C (configuration not stated) | 106% (inactive)
23 | COc1ccccc1N1CCN(c2ncc(C(=O)N3CCN(c4cccc(Cl)c4)CC3)c3ccccc23)CC1 | 4.47% (inactive)
24 | COc1cc(CN2CCc3ccccc3C2)ccc1O | -37.2% (inactive)
25 | O=C1CSc2ccc(C(=O)Nc3cccc(S(=O)(=O)Nc4ccc(Br)cc4)c3)cc2N1 | 12% (inactive)

System: A549 cytotoxicity, plate reader
Assay: as above
Conditions: not given

Row | SMILES | AC50
26 | COc1ccc(NC(=O)c2nc(S(=O)(=O)Cc3cccc(C)c3)ncc2Cl)c(OC)c1 | > 52 µM (inactive)
27 | CN(C)c1nc(-c2ccccn2)nnc1-c1ccccc1 | 25.6 µM
